Measurements reported in patent US9670242B2, “Tetracyclic anthraquinone derivatives” (Tianjin Hemay Bio-Tech Co., Ltd, priority 2012, dated 2017).
Counter-ions that a name gives are not always drawn. Blank lines part the entries; values can stand above or below the compound they belong to.

Key:
A375 cells = assay: A375 cell growth inhibition test (MTT assay); type: cell-based, human; details: 72 h
Experimental: A375 Cell Growth Inhibition Test (MTT Assay)
(§1) II. Reagents and Consumable Materials
Culture medium: 90% DMEM+10% FBS (fetal calf serum); Pancreatin (0.25% (w/v) solution was formulated with PBS, 0.53 mM of EDTA was added in the formulation); PBS; 96-well culture plate.
(§2) 1. A plate (10 cm) of cells in logarithmic growth phase that were normally cultured was collected;
(§3) 2. The culture solution was sucked out. The plate was washed with 5 mL of PBS once or twice;
(§4) 3. PBS was sucked out. 1.5 mL of 0.25% pancreatin was added to the plate to infiltrate the cells for 1 min;
(§5) 4. The culture plate was placed in an incubator. Digestion was carried out for about 5 min at 37° C.;
(§6) 5. 3 mL of complete culture solution was added to the culture plate to stop the digestion. The cells were carefully scoured with micropipette (1 ml) to give a uniform cell suspension. The suspension was implanted into a 96-well cell culture disc by 3000 cells/100 μL per well. The culture plate was incubated overnight under 5% CO2 at 37° C. In day 2, 100 μL of culture solution comprising a compound was added in each well. The plate was further incubated for 72 h under 5% CO2 at 37° C.;
(§7) 6. The culture solution was sucked out;
(§8) 7. 100 μL of serum-free culture solution containing 0.5 mg/mL MTT was added in each well. The plate was incubated for 3 h;
(§9) 8. The culture solution was carefully sucked out;
(§10) 9. 100 μL of DMSO was added in each well and vibrated to dissolve;
(§11) 10. OD values were determined at 490 nM.
(§12) IV. Results and Treatments
(§13) 1. Calculation of Relative Inhibition Ratio The inhibition ratio of a compound on cell growth=(PC−n)/(PC−NC)×100%
(§14) PC: OD values of cells after normal growth in control wells without a compound;
(§15) n: OD values of cells after growth in test wells with a compound;
(§16) NC: Background OD values of blank wells without a compound and cells.

SK-OV-3 cells = assay: SK-OV-3 cell growth inhibition test (MTT assay); type: cell-based, human; details: growth inhibition at 667 nM, 69 h
Experimental: SK-OV-3 Cell Growth Inhibition Test (MTT Assay)
Cell strains: SK-OV-3 (human ovarian cancer cell strains); MTT; antitumor compounds; DMSO.
as §1
Culture medium: 90% McCoy's 5A+10% FBS; Pancreatin (0.25% (w/v) solution was formulated with PBS, 0.53 mM of EDTA was added in the formulation); PBS; 96-well culture plate.
as §2, §3
(§17) 3. PBS was sucked out. 1.5 mL of 0.25% pancreatin was added to infiltrate the cells;
4. The pancreatin was sucked out. The culture plate was placed in an incubator. Digestion was carried out for about 5 min at 37° C.;
as §6, with “5. 4.5” for “5. 3”, “by 4000” for “by 3000”, “for 69” for “for 72”
as §7, §8, §9, §10, §11, §12, §13, §14, §15, §16

BxPc-3 cells = assay: BxPc-3 cell growth inhibition test (MTT assay); type: cell-based, human; details: growth inhibition at 2000 nM, 70 h
Experimental: BxPc-3 Cell Growth Inhibition Test (MTT Assay)
Cell strains: BxPC-3 (human pancreatic cancer cell strains); MTT; antitumor compounds; DMSO.
as §1
(§18) Culture medium: 90% RPMI-1640+10% FBS; Pancreatin (0.25% (w/v) solution was formulated with PBS, 0.53 mM of EDTA was added in the formulation); PBS; 96-well culture plate.
as §2, §3, §17
4. The culture plate was placed in an incubator. Digestion was carried out for about 8 min at 37° C.;
as §6, with “5. 4.5” for “5. 3”, “by 5000” for “by 3000”, “for 70” for “for 72”
as §7, §8, §9
(§19) 9. 100 μL of DMSO was added into each well and vibrated to dissolve;
as §11, §12, §13, §14, §15, §16

NCI-H446 cells = assay: NCI-H446 cell growth inhibition test (MTT assay); type: cell-based, human; details: growth inhibition at 222 nM, 70 h
Experimental: NCI-H446 Cell Growth Inhibition Test (MTT Assay)
Cell strains: NCI-H446 (human small cell lung cancer cell strains); MTT; antitumor compounds; DMSO.
as §1, §18, §2, §3, §17
4. The culture plate was placed in an incubator. Digestion was carried out for about 3 min at 37° C.;
as §6, with “4000” for “3000”, “70” for “72”
as §7, §8, §9, §19, §11, §12, §13, §14, §15, §16

MDA-MB-453 cells = assay: MDA-MB-453 cell growth inhibition test (SRB assay); type: cell-based, human; details: growth inhibition at 2000 nM, 69.5 h
Experimental: MDA-MB-453 Cell Growth Inhibition Test (SRB Assay)
Cell strains: MDA-MB-453 (human breast cancer cell strains); SRB: 0.4% (w/v) working solution was formulated with 1% glacial acetic acid, reserved at 4° C.; antitumor compounds; DMSO.
as §1
Culture medium: 90% L15+10% FBS; pancreatin (0.25% (w/v) solution was formulated with PBS, 0.53 mM of EDTA was added in the formulation); PBS; 96-well culture plate.
as §2, §3
(§20) 3. 1.5 mL of 0.25% pancreatin was added to the plate to infiltrate the cells;
(§21) 4. The pancreatin was sucked out. The culture plate was placed in an incubator. Digestion was carried out for about 3 min at 37° C.;
as §6, with “5. 4” for “5. 3”, “uniform single” for “uniform”, “culture plate” for “culture disc”, “by 7000” for “by 3000”, “well.” for “well. The plate was further incubated for 72 h under 5% CO2 at 37° C.;”
The plate was further incubated for 69.5 h under 5% CO2 at 37° C.;
(§22) 6. The culture solution was sucked out. 100 uL of TCA fixed cells which were diluted to 10% were added to each well. The plate was kept in a refrigerator for 1 h at 4° C.
(§23) 7. TCA stationary liquid was sucked out. Each well was washed with 150 μL of ddH2O five times;
(§24) 8. After the stationary liquid was cleansed, the plate was dried in the air at the room temperature;
(§25) 9. 60 μL of SRB staining solution was added in each well. The well was stained for 15 min at the room temperature;
(§26) 10. The SRB staining solution was sucked out. Each well was washed with 150 μL of 1% glacial acetic acid five times;
(§27) 11. After the SRB staining solution was cleansed, the plate was dried in the air at the room temperature;
(§28) 12. 100 μL of 10 mM Tris was added in each well. The plate was vibrated to dissolve out SRB;
(§29) 13. OD values were determined at 570 nM.
as §12, §13, §14, §15, §16

22Rv1 cells = assay: 22Rv1 cell growth inhibition test (SRB assay); type: cell-based, human; details: growth inhibition at 222 nM, 73 h
Experimental: 22Rv1 Cell Growth Inhibition Test (SRB Assay)
Cell strains: 22Rv1 (human prostate cancer cell strains); SRB: 0.4% (w/v) working solution was formulated with 1% glacial acetic acid, reserved at 4° C.; antitumor compounds; DMSO.
as §1, §18, §2, §3, §20, §21
as §6, with “5. 4” for “5. 3”, “uniform single” for “uniform”, “culture plate” for “culture disc”, “by 7000” for “by 3000”, “for 73” for “for 72”
as §22, §23, §24, §25, §26, §27, §28, §29, §12, §13, §14, §15, §16

[1] = Solubility of the compound in water; type: physicochemical
A431 cells = assay: A431 cell growth inhibition test (MTT assay); type: cell-based, human; details: 72 h
Experimental: A431 Cell Growth Inhibition Test (MTT Assay)
as §1
Culture medium: 45% DMEM+45% F12+10% FBS (fetal calf serum); Pancreatin (0.25% (w/v) solution was formulated with PBS, 0.53 mM of EDTA was added in the formulation); PBS; 96-well culture plate.
as §2, §3, §4, §5
as §6, with “mL)” for “ml)”, “2500” for “3000”
as §7, §8, §9, §10, §11, §12, §13, §14, §15, §16

Structure (SMILES): COc1cccc2c1C(=O)c1c(O)c3c(c(O)c1C2=O)CC(O)(C(=O)COC(=O)CCC(=O)NCCOCCN(C)C)CC3OC1CC(n2cccc2)C(O)C(C)O1 (stereo not shown) [Example 6]
IC50 (A375 cells): 67 nM

Structure (SMILES): CC(=O)O.COc1cccc2c1C(=O)c1c(O)c3c(c(O)c1C2=O)CC(O)(C(=O)COC(=O)CCC(=O)N1CCN(CCO)CC1)CC3O[C@H]1C[C@H](n2cccc2)[C@H](O)[C@H](C)O1 (stereo partly drawn) [Example 77, 10-((3′-(pyrrol-1-yl)-2′,3′,6′-trideoxy-alphal-l-lyxo-hexylpyranyl)oxy)-7,8,9,10-tetrahydro-6,8,11-trihydroxy-13-oxo-14-(4-((4-(2-hydroxy)ethyl)piperazin-1-yl)-4-oxo-butyrato)-1-methoxy-5,12-naphthalenedione acetate]
Inhibition Ratio (%) (SK-OV-3 cells): 60.4% | Inhibition Ratio (%) (BxPc-3 cells): 83.3% | Inhibition Ratio (%) (NCI-H446 cells): 59.1% | Inhibition Ratio (%) (MDA-MB-453 cells): 79.7% | Inhibition Ratio (%) (22Rv1 cells): 57.9% | solubility of the compound in water [1]: more than 10.6 mg/ml

Structure (SMILES): CC(=O)O.COc1cccc2c1C(=O)c1c(O)c3c(c(O)c1C2=O)CC(O)(C(=O)COC(=O)CCC(=O)N1CCN(CCCN(C)C)CC1)CC3O[C@H]1C[C@H](n2cccc2)[C@H](O)[C@H](C)O1 (stereo partly drawn) [Example 87, 10-((3′-(pyrrol-1-yl)-2′,3′,6′-trideoxy-alphal-l-lyxo-hexylpyranyl)oxy)-7,8,9,10-tetrahydro-6,8,11-trihydroxy-13-oxo-14-(4-(4-(3-(dimethylamino)propyl)piperazin-1-yl)-4-oxo-butyrato)-1-methoxy-5,12-naphthalenedione acetate]
solubility of the compound in water [1]: more than 16 mg/ml

Structure (SMILES): COc1cccc2c1C(=O)c1c(O)c3c(c(O)c1C2=O)CC(O)(C(=O)COC(=O)CCCC(=O)NCCN1CCOCC1)CC3OC1CC(n2cccc2)C(O)C(C)O1 (stereo not shown) [Example 97]
IC50 (A375 cells): 28 nM | IC50 (A431 cells): 45 nM

Structure (SMILES): COc1cccc2c1C(=O)c1c(O)c3c(c(O)c1C2=O)CC(O)(C(=O)COC(=O)CCC(=O)NCCN1CCOCC1)CC3O[C@H]1C[C@H](n2cccc2)[C@H](O)[C@H](C)O1 (stereo partly drawn) [Example 99, 10-((3′-(pyrrol-1-yl)-2′,3′,6′-trideoxy-alphal-l-lyxo-hexylpyranyl)oxy)-7,8,9,10-tetrahydro-6,8,11-trihydroxy-13-oxo-14-(4-((2-(morpholin-1-yl)ethyl)amino)-4-oxo-butyrato)-1-methoxy-5,12-naphthalenedione hydrochloride]
IC50 (A375 cells; hydrochloride): 35 nM

Continued, in another order:

solubility of the compound in water [1]: more than 9 mg/ml
Structure (SMILES): CC(=O)O.COc1cccc2c1C(=O)c1c(O)c3c(c(O)c1C2=O)CC(O)(C(=O)COC(=O)CCC(=O)NCCOCCN(C)C)CC3O[C@H]1C[C@H](n2cccc2)[C@H](O)[C@H](C)O1 (stereo partly drawn) [Example 76, 10-((3′-(pyrrol-1-yl)-2′,3′,6′-trideoxy-alphal-l-lyxo-hexylpyranyl)oxy)-7,8,9,10-tetrahydro-6,8,11-trihydroxy-13-oxo-14-(4-(2-(2-(dimethylamino)ethoxy)ethylamino)-4-oxo-butyrato)-1-methoxy-5,12-naphthalenedione acetate]
Inhibition Ratio (%) (SK-OV-3 cells): 46.4% | Inhibition Ratio (%) (BxPc-3 cells): 77.1% | Inhibition Ratio (%) (NCI-H446 cells): 46% | Inhibition Ratio (%) (MDA-MB-453 cells): 62.7% | Inhibition Ratio (%) (22Rv1 cells): 49.2%

solubility of the compound in water [1]: more than 11 mg/ml
Structure (SMILES): CC(=O)O.COc1cccc2c1C(=O)c1c(O)c3c(c(O)c1C2=O)CC(O)(C(=O)COC(=O)CCC(=O)NCCc1cccnc1)CC3O[C@H]1C[C@H](n2cccc2)[C@H](O)[C@H](C)O1 (stereo partly shown) [Example 85]

solubility of the compound in water [1]: more than 3 mg/ml
Structure (SMILES): CC(=O)O.COc1cccc2c1C(=O)c1c(O)c3c(c(O)c1C2=O)CC(O)(C(=O)COC(=O)CCC(=O)NCCc1ccncc1)CC3O[C@H]1C[C@H](n2cccc2)[C@H](O)[C@H](C)O1 (stereo partly shown) [Example 86]
